# System: Lewis lung carcinoma
# Assay: Growth of Lewis lung carcinoma flank tumors
# Assay type: in vivo, mice
# Conditions: 50 μg IV on days 1, 3, 5
# From the text: Ten animals were subcutaneously injected in the flank with […] Lewis lung carcinoma cells. Evaluation of flank tumors is a well recognized model for angiogenesis, because flank tumors are highly dependent on angiogenesis. O'Reilly, M. S., Angiostatin: A Novel Angiogenesis Inhibitor that Mediates the Suppression of Metastasis by a Lewis Lung Carcinoma, Cell 79: 315-28 (1994). After 9 days when a palpable tumor developed, mice were divided into two groups of 5 animals per group. One group of 5 mice were treated with an IV injection of 50 μg of angiocidin in Hepes buffered saline. The control group was treated with Hepes buffered saline. Mice were treated on days 1, 3, and 5 after the groups were divided, and sacrificed on day 7.
# The tumors were embedded in paraffin and cut into 5 micron sections. The sections were stained with hemotoxylin and eosin. Hemotoxylin stains DNA blue, and eosin stains protein pink. FIG. 36 illustrates the difference between control (panels A and C) and angiocidin (panels B and D) treated cells. Panels A and B are at a magnification of 400×under a light microscope and panels C and D are at a magnification of 200×under a light microscope.
substance,measurement,setting,value
angiocidin: Cys-Ser-Val-Thr-Cys-Gly (SEQ ID NO: 1)-specific thrombospondin (TSP-1) receptor protein; recombinant form of SEQ ID NO: 2 used in the Examples,tumor histology (hemotoxylin and eosin),,significant necrosis and cell death
same,tumor growth (relative tumor volumes),7 day treatment period,grew only slightly and at a linear rate
same,flank tumor size,sacrificed day 7,much smaller than the control mice

# Reference: patent US20030180295A1, “Angiocidin: a Cys-Ser-Val-Thr-Cys-Gly specific tumor cell adhesion receptor” (Philadelphia Health and Education Corporation, priority 1999, published 2003)
